Test results from BindingDB's records for patent WO2025049746 (Eikon Therapeutics, 2025).

Assays:
[1] = molecular target: T1, Bifunctional 3'-5' exonuclease/ATP-dependent helicase WRN [480-1251] (UniProt Q14191); assay: Biochemical Activity Assays
T1 construct: 480-1251

[2] = molecular target: Bifunctional 3'-5' exonuclease/ATP-dependent helicase WRN (Homo sapiens, UniProt Q14191); assay: ADP-Glo Kinase Assay
Experimental: ATPase activity was measured using the ADP-Glo Kinase Assay following the manufacturers recommended protocol.

T1 sequence (Q14191 480-1251): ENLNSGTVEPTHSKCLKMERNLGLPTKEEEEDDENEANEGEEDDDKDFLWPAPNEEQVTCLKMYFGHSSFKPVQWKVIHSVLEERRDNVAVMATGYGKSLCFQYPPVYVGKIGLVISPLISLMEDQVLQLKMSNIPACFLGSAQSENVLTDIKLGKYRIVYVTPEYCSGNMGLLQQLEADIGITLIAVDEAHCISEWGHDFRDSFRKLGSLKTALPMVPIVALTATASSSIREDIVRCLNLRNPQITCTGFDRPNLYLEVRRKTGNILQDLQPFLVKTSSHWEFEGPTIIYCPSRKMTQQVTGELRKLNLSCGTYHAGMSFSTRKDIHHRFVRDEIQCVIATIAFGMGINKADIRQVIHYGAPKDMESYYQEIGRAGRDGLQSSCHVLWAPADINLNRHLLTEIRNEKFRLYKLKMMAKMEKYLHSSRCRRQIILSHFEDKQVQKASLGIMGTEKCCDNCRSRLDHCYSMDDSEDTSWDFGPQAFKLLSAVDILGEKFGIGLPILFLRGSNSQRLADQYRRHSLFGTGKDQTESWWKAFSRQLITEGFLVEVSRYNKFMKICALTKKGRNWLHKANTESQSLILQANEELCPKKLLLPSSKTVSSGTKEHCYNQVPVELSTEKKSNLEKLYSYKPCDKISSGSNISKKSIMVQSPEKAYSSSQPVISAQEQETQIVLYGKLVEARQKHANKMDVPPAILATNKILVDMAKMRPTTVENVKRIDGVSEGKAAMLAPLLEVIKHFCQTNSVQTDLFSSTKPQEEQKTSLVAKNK
Bifunctional 3'-5' exonuclease/ATP-dependent helicase WRN, sequence (Q14191 whole entry): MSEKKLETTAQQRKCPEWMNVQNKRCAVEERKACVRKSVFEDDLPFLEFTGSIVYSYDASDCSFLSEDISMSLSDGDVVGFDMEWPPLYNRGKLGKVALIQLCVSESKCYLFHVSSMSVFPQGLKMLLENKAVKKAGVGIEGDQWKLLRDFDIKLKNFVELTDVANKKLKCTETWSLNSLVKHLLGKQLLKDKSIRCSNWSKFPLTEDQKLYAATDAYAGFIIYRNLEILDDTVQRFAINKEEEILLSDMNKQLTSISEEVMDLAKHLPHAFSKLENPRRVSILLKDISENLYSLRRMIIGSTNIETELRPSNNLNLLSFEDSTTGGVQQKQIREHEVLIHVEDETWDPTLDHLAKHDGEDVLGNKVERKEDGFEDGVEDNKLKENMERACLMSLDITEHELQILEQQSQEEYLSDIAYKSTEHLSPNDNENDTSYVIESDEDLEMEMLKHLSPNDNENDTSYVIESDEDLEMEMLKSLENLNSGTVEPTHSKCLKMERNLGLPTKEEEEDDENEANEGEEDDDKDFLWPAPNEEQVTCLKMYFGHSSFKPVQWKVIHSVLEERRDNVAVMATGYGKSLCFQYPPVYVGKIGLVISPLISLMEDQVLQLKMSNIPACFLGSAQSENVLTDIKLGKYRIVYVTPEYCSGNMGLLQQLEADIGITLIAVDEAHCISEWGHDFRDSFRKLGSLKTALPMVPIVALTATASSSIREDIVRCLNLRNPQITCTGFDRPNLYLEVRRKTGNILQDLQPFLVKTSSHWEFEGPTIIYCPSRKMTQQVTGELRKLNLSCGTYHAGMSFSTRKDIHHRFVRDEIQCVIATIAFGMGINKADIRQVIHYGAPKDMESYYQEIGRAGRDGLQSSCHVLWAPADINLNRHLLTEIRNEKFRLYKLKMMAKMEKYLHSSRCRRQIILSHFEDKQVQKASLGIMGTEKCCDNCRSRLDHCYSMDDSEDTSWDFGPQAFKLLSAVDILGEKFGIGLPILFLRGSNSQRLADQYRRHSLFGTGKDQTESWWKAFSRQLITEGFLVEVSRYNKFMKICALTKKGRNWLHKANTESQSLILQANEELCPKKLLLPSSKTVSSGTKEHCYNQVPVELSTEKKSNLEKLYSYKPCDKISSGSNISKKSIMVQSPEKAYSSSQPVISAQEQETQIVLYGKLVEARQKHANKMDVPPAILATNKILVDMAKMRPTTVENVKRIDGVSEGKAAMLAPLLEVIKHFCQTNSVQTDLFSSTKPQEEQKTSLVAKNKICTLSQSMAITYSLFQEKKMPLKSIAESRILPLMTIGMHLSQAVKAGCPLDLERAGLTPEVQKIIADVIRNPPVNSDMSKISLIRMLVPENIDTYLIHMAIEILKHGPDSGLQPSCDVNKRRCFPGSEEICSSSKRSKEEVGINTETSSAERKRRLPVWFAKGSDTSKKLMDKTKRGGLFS

| SMILES | IC50 [1] [nM] | IC50 [2] [nM] |
| --- | --- | --- |
| CCc1c(N2CCN(C(=O)c3ncnc(C)c3O)CC2)c(=O)n2nc(-c3cc4c(cc3F)COC4)nc2n1CC(=O)Nc1ccc(C(F)(F)F)cc1Cl [WO2025049746, Example 201] | 21 | 25 |
| CCc1c(N2CCN(C(=O)c3nc4c(cc3O)OCCC4)CC2)c(=O)n2nc(-c3ccc4c(c3)COC4)nc2n1CC(=O)Nc1ccc(C(F)(F)F)cc1Cl [WO2025049746, Example 432] | 75 | 88 |
| CCc1c(N2CCN(C(=O)c3ncnc(C)c3O)CC2)c(=O)n2nc(C3CC3)nc2n1CC(=O)Nc1ccc(C(F)(F)F)cc1C [WO2025049746, Example 78] | 70.1 | 194 |
| CCc1c(N2CCN(C(=O)c3ncnc(C)c3O)CC2)c(=O)n2nc(-c3ccc4c(c3F)CCOC4)nc2n1CC(=O)Nc1ccc(C(F)(F)F)cc1Cl [WO2025049746, Example 217] | 32 | 31 |
| CCc1c(N2CCN(C(=O)c3ncnc(C)c3O)CC2)c(=O)n2nc(-c3ccc4c(c3)CCO4)nc2n1CC(=O)Nc1c(Cl)cc(C(F)(F)F)c2c1CC2 [WO2025049746, Example 383] | 74 | 94 |
| CCc1c(N2CCN(C(=O)c3ncnc(C)c3O)CC2)c(=O)n2nc(-c3ccc4c(c3)CC(C)(C)N4C)nc2n1CC(=O)Nc1ccc(C(F)(F)F)cc1Cl [WO2025049746, Example 316] | 68 | 57 |
| CCc1c(N2CCN(C(=O)c3ncnc(C)c3O)CC2)c(=O)n2nc(-c3cc(F)c4c(c3)COC4(C)C)nc2n1CC(=O)Nc1ccc(C(F)(F)F)cc1Cl [WO2025049746, Example 212] | 73 | 86 |
| CCc1c(N2CC[C@H](C)N(C(=O)c3ncnc(C)c3O)CC2)c(=O)n2nc(C3=CCOCC3)nc2n1CC(=O)Nc1ccc(C(F)(F)F)cc1Cl [WO2025049746, Example 342] | 420 | 1800 |
| CCc1c(N2CCN(C(=O)c3ncnc(C)c3O)CC2)c(=O)n2nc(-c3ccc4c(c3)COC4)nc2n1CC(=O)Nc1c(Cl)cc(C(F)(F)F)cc1OC1CC1 [WO2025049746, Example 414] | 1130 | 2370 |
| CCc1c(N2CCN(C(=O)c3ncnc(C)c3O)CC2)c(=O)n2nc(-c3ccc4c(c3)CCN(C)C4)nc2n1CC(=O)Nc1ccc(C(F)(F)F)cc1Cl [WO2025049746, Example 294] | 48 | 44 |
| CCc1c(N2CCN(C(=O)c3ncnc(C)c3O)CC2)c(=O)n2nc(N(C)C)nc2n1CC(=O)Nc1c(Cl)cc(C(F)(F)F)c2c1CC2 [WO2025049746, Example 387] | 32 | 41 |
| CCc1c(N2CCN(C(=O)c3ncnc(C)c3O)CC2)c(=O)n2nc(-c3cc4c(cc3F)[C@H](OC)CC4)nc2n1CC(=O)Nc1ccc(C(F)(F)F)cc1Cl [WO2025049746, Example 245] | 28 | 26 |
| CCc1c(N2CCN(C(=O)c3ncnc(N4CC(OC)C4)c3O)CC2)c(=O)n2nc(-c3ccc4c(c3)COC4)nc2n1CC(=O)Nc1ccc(C(F)(F)F)cc1Cl [WO2025049746, Example 415] | 1 | 3 |
| CCc1c(N2CCN(C(=O)c3ncnc(C)c3O)CC2)c(=O)n2nc(-c3cc(C(F)(F)F)c4ncccc4c3)nc2n1CC(=O)Nc1ccc(C(F)(F)F)cc1Cl [WO2025049746, Example 322] | 96 | 72 |
| CCc1c(N2CCN(C(=O)c3ncnc(C)c3O)CC2)c(=O)n2nc(N(C)C)nc2n1CC(=O)Nc1ccc(C(F)(F)F)cc1C [WO2025049746, Example 77] | 44.3 | 62.1 |
| CCc1c(N2CCN(C(=O)c3nc4c(cc3O)CCCC4)CC2)c(=O)n2nc(-c3ccc4c(c3)COC4)nc2n1CC(=O)Nc1ccc(C(F)(F)F)cc1Cl [WO2025049746, Example 423] | 150 | 169 |

| SMILES | IC50 [1] [nM] | IC50 [2] [nM] |
| --- | --- | --- |
| Cc1ncnc(C(=O)N2CCN(c3c4n(c5nc(-c6ccc7c(c6)COC7(C)C)nn5c3=O)[C@@H](C(=O)Nc3ccc(C(F)(F)F)cc3Cl)C[C@H]4C)[C@H]3CC[C@@H]32)c1O [WO2025049746, Example 465] | 31.9 | 29.1 |
| CCc1c(N2CCN(C(=O)c3ncnc(C)c3O)CC2)c(=O)n2nc(-c3ccc4conc4c3)nc2n1CC(=O)Nc1ccc(C(F)(F)F)cc1Cl [WO2025049746, Example 265] | 40 | 40 |
| CCc1c(N2CCN(C(=O)c3ncnc(C)c3O)CC2)c(=O)n2nc(-c3ccc4c(c3)COC4)nc2n1CC(=O)Nc1cc(C2CC2)c(C(F)(F)F)cc1Cl [WO2025049746, Example 418] | 57 | 66 |
| CCc1c(N2CCN(C(=O)c3ncnc(C)c3O)CC2)c(=O)n2nc(C3=CCOCC3)nc2n1CC(=O)Nc1ccc(C(F)(F)F)c2scnc12 [WO2025049746, Example 368] | 30 | 36 |
| CCc1c(N2CCN(C(=O)c3ncnc(C)c3O)CC2)c(=O)n2nc(-c3ccc4nn(CC(F)F)cc4c3)nc2n1CC(=O)Nc1ccc(C(F)(F)F)cc1Cl [WO2025049746, Example 292] | 29 | 28 |
| CCc1c(N2CCN(C(=O)c3ncnc(C)c3O)CC2)c(=O)n2nc(-c3ccc4c(c3)CCO4)nc2n1CC(=O)Nc1c(Cl)cc(C(F)(F)F)c2scnc12 [WO2025049746, Example 428] | 38 | 45 |
| CCc1c(N2CCN(C(=O)c3ncnc(C)c3O)CC2)c(=O)n2nc(C3=CCOCC3)nc2n1CC(=O)Nc1ccc(C(F)(F)F)cn1 [WO2025049746, Example 363] | 81 | 155 |
| CCc1c(N2CCN(C(=O)c3ncnc(C)c3O)CC2)c(=O)n2nc(-c3cnc4nn(C)cc4c3)nc2n1CC(=O)Nc1ccc(C(F)(F)F)cc1Cl [WO2025049746, Example 313] | 38 | 35 |
| CCc1c(N2CCN(C(=O)c3ncnc(C)c3O)CC2)c(=O)n2nc(-c3cc(C)n4nccc4c3)nc2n1CC(=O)Nc1ccc(C(F)(F)F)cc1Cl [WO2025049746, Example 240] | 27 | 24 |
| CCc1c(N2CCN(C(=O)c3ncnc(C)c3O)CC2)c(=O)n2nc(-c3ccc(NC(=O)NC)cc3)nc2n1CC(=O)Nc1ccc(C(F)(F)F)cc1Cl [WO2025049746, Example 331] | 26 | 20 |
| CCc1c(N2CCN(C(=O)c3cccc4[nH]c(=O)[nH]c34)CC2)c(=O)n2nc(C3=CCOCC3)nc2n1CC(=O)Nc1ccc(C(F)(F)F)cc1Cl [WO2025049746, Example 51] | 43.9 | 57.1 |
| CCc1c(N2CCN(C(=O)c3ncnc(C)c3O)CC2)c(=O)n2nc(N3CCC3)nc2n1CC(=O)Nc1ccc(C(F)(F)F)c2c1CC2 [WO2025049746, Example 377] | 32 | 45 |
| CCc1c(N2CCN(C(=O)c3ncnc(C)c3O)CC2)c(=O)n2nc(-c3ccc4c(c3)CC[C@@H]4OC)nc2n1CC(=O)Nc1ccc(C(F)(F)F)cc1Cl [WO2025049746, Example 207] | 33 | 39 |
| CCc1c(N2CCN(C(=O)c3ncnc(C)c3O)CC2)c(=O)n2nc(-c3ccc4c(c3C)CCO4)nc2n1CC(=O)Nc1ccc(C(F)(F)F)cc1Cl [WO2025049746, Example 238] | 33 | 30 |
| CCc1c(N2CCN(C(=O)c3ncnc(C)c3O)CC2)c(=O)n2nc(-c3ccc4c(c3)OCC4)nc2n1CC(=O)Nc1ccc(C(F)(F)F)cc1Cl [WO2025049746, Example 12] | 27.9 | 34.9 |
